Laboratory results: patent US20190183138A1, “MILK COAGULANT AND METHOD FOR PRODUCING CHEESE” (CHINA AGRICULTURAL UNIVERSITY, priority 2017, published 2019)
Square brackets hold non-standard residues; d marks the D form. Peptide text beside a SMILES is read from it. * marks the point of attachment. Sta = CC(C)C[C@H](N)[C@@H](O)CC(=O)O; Isovaleryl = CC(C)CC(=O)*

Tests used:
[1] = system: C. otophyllum protease QC; type: biochemical, Cynanchum otophyllum Schneid.; settings: inhibitor 8 mmol/L, 37° C., 30 min
Procedure: (§1) The caseinolytic activities of the C. otophyllum proteases were determined using a method modified from Mohanty et al. (2003). The substrate was prepared by dissolving 1% (wt/vol) of whole casein in 10 mmol/L of citric acidphosphate buffer (pH 6.5). The assay was performed by incubating 1.1 mL of substrate with 0.1 mL of partially purified protease extracted solution under 37° C. for 30 min and terminated using 1.8 mL of 5% (wt/vol) trichloroacetic acid (TCA). The blank control was prepared by adding the same amount of TCA to the protease extracted solution, then adding the substrate. After 30 min standing at room temperature, the completely precipitated proteins were removed by centrifuging at 5,000 × g for 20 min at room temperature. The protein content in the supernatant was then measured at 280 nm (UV-2102 PC, Unico Instrument Co. Ltd.). One unit of PA was defined as the amount of the protease extracted solution required for an increase of 0.01 in optical density in 1 min at 280 nm.
(§2) The type of protease was determined as described by Mazorra-Manzano et al. (2013) with modification.Different protease inhibitors (8 mmol/L, 0.1 mL), a serine protease (phenylmethylsulfonyl fluoride, PMSF), a cysteine protease [transepoxy-succinylleucyl-amido-(4-guanidino)-butane, E-64], a metallo protease (EDTA), and an aspartic protease (pepstatin A), were added to 1 mL of the proteases. The mixtures were incubated at 37° C. for 30 min, then PA was evaluated. The percentage inhibition was calculated as follows:
(§3) percentage inhibition=100−[100−(residual activity/activity without inhibitor)].

[2] = system: C. otophyllum protease QA; type: biochemical, Cynanchum otophyllum Schneid.; settings: inhibitor 8 mmol/L, 37° C., 30 min
Procedure: as §1, §2, §3

[3] = system: C. otophyllum protease QC; experiment: Effect of metal ions on milk-clotting activity; type: biochemical, Cynanchum otophyllum Schneid.; settings: metal ion 10 mmol/L added to 12% (w/v) skim milk containing 10 mmol/L CaCl2, pH 6.5
From the text: (§4) Some metal ions as a cofactor can participate in the milk-clotting reaction, thus affecting activity of enzyme. Further, the skim milk is of increased iron strength after addition of salts, thus interfering the stability of casein micelle and the formation of the milk clot. […] The reason of the promotion on milk coagulant activity and the decrease in milk-clotting time by the calcium ions is that they combines with exposed α-casein and β-casein during aggregation of the casein (i.e. the second step of the milk-clotting reaction), so as to promote formation of the milk clot. Further, it has been investigated that the calcium ions protect enzyme, especially those being poor resistant to temperature, and stabilizes the structure of enzyme, thus an amount of CaCl2 is often added to protect the structure of enzyme during cheese production, for increasing activity and speeding milk-clotting.

[4] = system: C. otophyllum protease QA; experiment: Effect of metal ions on milk-clotting activity; type: biochemical, Cynanchum otophyllum Schneid.; settings: metal ion 10 mmol/L added to 12% (w/v) skim milk containing 10 mmol/L CaCl2, pH 6.5
From the text: as §4

12% skim milk = experiment: Milk clotting activity (MCA) assay, curd formation time; type: biochemical; settings: 12% skim milk in 10 mM CaCl2, pH 6.5, 37° C.; FIG. 5
Procedure: The MCA of the C. otophyllum proteases was determined using a modified method of He et al. (2011). One milliliter of substrate (12% skim milk in 10 mM CaCl2, pH 6.5) was incubated under 37° C. for 5 min, then 0.1 mL of the protease extracted solution was added. The time needed for curd formation was recorded and the MCA was expressed in Soxhlet units (SU). One SU of MCA was defined as the amount of the protease extracted solution required to clot 1 mL of substrate within 40 min at 37° C.
where V stands for the volume of the substrate (mL); v stands for the volume of the protease extract; and t stands for the milk-clotting time (s).
The C. otophyllum proteases were extracted as described by Huang et al. (2011) with some modifications. The C. otophyllum leaves were cut into pieces, mixed with a buffer at different solid-liquid ratios (i.e. ratio of mass to volume) for extraction, and then left for 2 h under 4° C., thus obtaining an extracted solution. After successive filtration through 4 layers of cheesecloth and a 0.22-μm membrane, the filtrate was concentrated by ultrafiltration with a 10-kDa molecular weight cut-off membrane at 8000 × g for 40 minutes at 4° C., with the retentate obtained as the concentrated solution of C. otophyllum proteases, which was assayed for protein concentration following the method of Bradford (1976) and curd formation time for 12% (w/v) skim milk.

| Molecule | effect on milk-clotting activity of QC [3] | effect on milk-clotting activity of QA [4] | also measured |
| --- | --- | --- | --- |
| O=C(O)CN(CCN(CC(=O)O)CC(=O)O)CC(=O)O [EDTA] |  |  | effect on the PA of QC [1]: does not affect; effect on the PA of QA [2]: does not affect |
| lithium | no significant effect | no significant effect |  |
| zinc | significant inhibition | significant inhibition |  |
| bromelain [reference compound] |  |  | MCA (milk-clotting activity) (12% skim milk): 222.2 SU/mg |
| magnesium | no significant effect | no significant effect |  |
| sodium | no significant effect | no significant effect |  |
| O=S(=O)(F)Cc1ccccc1 [PMSF, phenylmethylsulfonyl fluoride] |  |  | reduction in the activity of QC ([1]; compared to the control): about 15%; reduction in the activity of QA ([2]; compared to the control): about 15% |
| CC(C)CC(=O)N[C@H](C(=O)N[C@H](C(=O)N[C@@H](CC(C)C)[C@@H](O)CC(=O)N[C@@H](C)C(=O)N[C@@H](CC(C)C)[C@@H](O)CC(=O)O)C(C)C)C(C)C [pepstatin A] (Isovaleryl-VV[Sta]A[Sta]-OH) |  |  | effect on the PA of QC [1]: does not affect; effect on the PA of QA [2]: does not affect |
| CC(C)C[C@H](NC(=O)[C@H]1O[C@@H]1C(=O)O)C(=O)NCCCCN=C(N)N [E-64, transepoxy-succinylleucyl-amido-(4-guanidino)-butane] |  |  | PA of QC in presence of inhibitor ([1]; 0.1 mL to 1 mL protease): 20 % of the control; PA of QA in presence of inhibitor ([2]; 0.1 mL to 1 mL protease): 20 % of the control |
| barium | no significant effect | no significant effect |  |
| potassium | no significant effect | no significant effect |  |
| aluminium | significant increased effect | significant increased effect |  |
| calcium | significant increased effect | significant increased effect |  |
| copper | significant inhibition | significant inhibition |  |
